In patent US6825178B1, “Methods and products for treating pseudomonas infection” (The Brigham and Women's Hospital, Inc., priority 1996, dated 2004):
Marks after values point to notes of the source that are not given here.

Test system: transformed human airway epithelial cells (CFT1-LCFSN line)
Assay: Inhibition of internalization of P. aeruginosa strain PAO1 into CFT1-LCFSN cells (bacterial ingestion assay)
Assay type: cell-based
Conditions: for mean cfu P. aeruginosa internalized (standard deviation): strain PAO1, CFT1-LCFSN cells
Description: Cell lines. CFT1-LCFSN cells, carrying a retrovirally introduced chromosomal copy of the wild-type human CFTR gene were kindly provided by J. Olsen, J. Yankaskis and L. Johnson from The University of North Carolina, Chapel Hill, N.C.. The cell line parental to CFT1-LCFSN is designated CFT1; it is a line of human papilloma virus 18 E6/E7 transformed bronchial epithelial cells derived from a CF patient homozygous for ΔF508 CFTR. The CFT1-LCFSN cells have normal chloride ion conductance. CFT1-ΔF508 cells are derived from CFT1 cells and carry a cDNA introduced by a retrovirus vector that encodes the ΔF508 mutant form of CFTR. Cells were grown in supplemented F-12 medium as described in 5% CO2 at 37° C.
Bacterial strains. P. aeruginosa strains used include PAO1, a well-characterized laboratory strain, and strains 149 and 324, non-mucoid, LPS-smooth clinical isolates of P. aeruginosa from CF patients early in the course of infection. Fresh cultures of P. aeruginosa grown overnight at 37° C. on a tryptic soy agar plate were suspended in supplemented medium to prepare the bacterial inoculum. Approximately 10^6 cfu of the bacterial inoculum were added per well of 10^5, epithelial cells.
Reagents for inhibition of ingestion assays. Membranes were prepared from C127 cells as described by O'Riordan et al.. Membranes were suspended in 150 mM NaCl, 50 mM Tris, pH 7.5 and 1 mM EDTA and added at the indicated concentration to suspensions of P. aeruginosa strains prior to adding this mixture to CFT1-LCFSN cells to measure bacterial uptake. Membranes from CEM/VbI cells expressing P-glycoprotein and membranes from control CEM cells lacking P-glycoprotein were obtained from James Croop of Harvard Medical School. Purified (˜85%) recombinant CFTR was obtained from Genzyme Corp., and prepared as described. The protein was solubilized in 100 mM NaCl, 10 mM Tris, pH 8.0, 2 mM di-thio-threitol and 0.1% sodium dodecyl sulfate. Monoclonal antibodies raised to synthetic peptides corresponding to the first (MAb CF3) and fourth (MAb CF4) predicted extracellular domains of CFTR, as well as a MAb specific to a peptide representing the carboxy-terminal 14 amino acids of mature CFTR (MAb CF2) were provided by Dr. George Banting, University of Bristol, Bristol, UK [12]. Synthetic peptides were obtained from Chiron Mimetopes, San Diego, Calif. Peptide […] (15 amino acids) (SEQ.ID.NO. 3) represents amino acids 103-117 of mature CFTR, peptide […] (31 amino acids) (SEQ.ID.NO. 4) represents amino acids 881-911 of mature CFTR. Peptides were made up as a stock solution in F-12 medium containing 1 μM/μl based on the purity reported by the manufacturer. Peptides were diluted in F-12 tissue culture medium prior to use in assays.
Bacterial ingestion assay. Cells were released from monolayers in tissue culture flasks by 5 min. of incubation with trypsin-versene mixture (BioWhitaker, Walkersville, Md.), washed, counted and seeded into 96-well tissue culture plates at 10^5 cells/well in supplemented F-12 medium and incubated at 37° C. in 5% CO2. Fresh cultures of P. aeruginosa grown overnight at 37° C. on a tryptic soy agar plate were suspended in supplemented F-12 medium to prepare the bacterial inoculum. Then 10^6 colony forming units (cfu) of the bacterial inoculum were added per well of 10^5 epithelial cells. Bacteria were allowed to invade the epithelial cells for 3 to 4 hours at 37° C., after which nonadherent bacteria were removed by washing. The remaining steps of the assay and the steps involved in the controls have previously been described. Three to 9 replicates were obtained per point, and analyzed using analysis of variance (ANOVA) and the Fisher PLSD statistic to determine pairwise differences. […]

CFTR: purified (~85%) recombinant CFTR obtained from Genzyme Corp.
inhibition of bacterial ingestion (in words) (CFT1-LCFSN cells, nanogram quantities of CFTR): significant inhibition of bacterial ingestion | mean cfu P. aeruginosa internalized (standard deviation) (9.7 μg protein/ml): 1.05 × 10^5 (2.5 × 10^4) cfu | mean cfu P. aeruginosa internalized (standard deviation) (78 μg protein/ml): 8.55 × 10^4 (1.15 × 10^4) cfu | mean cfu P. aeruginosa internalized (standard deviation) (625 μg protein/ml): 4.9 × 10^4 (1.25 × 10^4)^a cfu | mean cfu P. aeruginosa internalized (standard deviation) (5000 μg protein/ml): 1.65 × 10^4 (1.05 × 10^4)^a cfu
